pIC50: −log10 of the molar value. Where two headings read alike, the source gives them in different places.
What was measured:
hROMK (human Kir1.1) [1] = molecular target: T1, hROMK (human Kir1.1) (Homo sapiens (Human), UniProt P48048); test: cell-based; details: CHO T-Rex hROMK stable cell line; thallium flux; 10-point concentration response curve; read-out: Human ROMK Th Flux IC50
hERG channels = hERG channels (Homo sapiens (Human), UniProt Q12809); test: hERG Manual Patch Clamp Assay; format: cell-based; details: human, HEK 293 cells stably expressing hERG channels, pH 7.4, 1 uM, read-out: hERG EP % Inh @ 1 uM
hERG channels, sequence (Q12809 whole entry): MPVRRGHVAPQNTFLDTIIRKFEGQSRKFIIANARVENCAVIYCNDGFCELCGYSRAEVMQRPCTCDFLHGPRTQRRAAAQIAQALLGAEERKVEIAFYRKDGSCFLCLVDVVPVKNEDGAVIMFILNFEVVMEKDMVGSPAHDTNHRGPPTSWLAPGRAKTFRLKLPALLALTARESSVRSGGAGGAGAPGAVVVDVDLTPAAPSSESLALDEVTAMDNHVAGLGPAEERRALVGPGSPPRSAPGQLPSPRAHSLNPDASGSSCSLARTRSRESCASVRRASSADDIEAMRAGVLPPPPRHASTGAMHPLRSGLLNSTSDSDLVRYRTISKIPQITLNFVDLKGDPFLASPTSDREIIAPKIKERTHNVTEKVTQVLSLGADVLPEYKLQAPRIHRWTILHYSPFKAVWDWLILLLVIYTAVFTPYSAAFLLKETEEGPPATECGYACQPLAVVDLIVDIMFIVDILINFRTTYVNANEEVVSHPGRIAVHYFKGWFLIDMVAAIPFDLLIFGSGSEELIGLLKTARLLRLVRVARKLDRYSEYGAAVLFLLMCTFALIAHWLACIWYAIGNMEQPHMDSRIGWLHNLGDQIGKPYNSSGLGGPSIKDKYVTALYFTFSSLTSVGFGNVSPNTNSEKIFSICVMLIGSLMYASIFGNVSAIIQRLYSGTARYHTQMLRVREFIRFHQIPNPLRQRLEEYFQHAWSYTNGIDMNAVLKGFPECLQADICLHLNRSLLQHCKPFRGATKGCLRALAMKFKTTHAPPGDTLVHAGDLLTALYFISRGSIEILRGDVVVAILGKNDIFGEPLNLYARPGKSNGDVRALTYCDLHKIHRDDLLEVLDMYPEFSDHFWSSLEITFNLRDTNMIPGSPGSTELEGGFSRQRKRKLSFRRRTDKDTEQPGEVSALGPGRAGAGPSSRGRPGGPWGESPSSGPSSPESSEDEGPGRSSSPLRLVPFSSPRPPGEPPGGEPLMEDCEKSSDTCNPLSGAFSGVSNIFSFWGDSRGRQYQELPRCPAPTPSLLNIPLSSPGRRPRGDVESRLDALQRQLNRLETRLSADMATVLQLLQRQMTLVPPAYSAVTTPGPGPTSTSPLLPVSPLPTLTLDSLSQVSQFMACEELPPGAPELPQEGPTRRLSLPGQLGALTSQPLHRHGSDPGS

hROMK (human Kir1.1) [2] = molecular target: T1, hROMK (human Kir1.1); test: cell-based; format: cell-based; details: whole-cell manual patch clamp, CHO T-Rex hROMK stable cell line, voltage step to -120 mV, Ba2+-subtracted hROMK current; read-out: ROMK EP IC50
Experimental: ROMK Manual Patch Clamp Assay
Cell culture conditions: Cells were maintained in conditions similar to those for Thallium flux assay. hROMK channel expression was induced by adding 0.6 μg/ml of Doxycycline 16-24 hrs prior to the experiments. On the day of experiment, the cells were dissociated using Versene, resuspended in growth media and plated onto coverslips 15 minutes prior to use.
Electrophysiology: The coverslip plated with cells was placed in the experiment chamber perfused with bath solution composed of (in mM): 135 NaCl, 5 KCl, 2 CaCl2, 1 MgCl2, 10 HEPES, 5 Glucose (pH 7.4). Patch pipettes with resistance between 2-5 Megaohms, when filled with a solution containing (in mM): 135 KCl, 1 EGTA, 1 MgCl2, 10 HEPES, 2 Na2ATP (pH 7.3), were used to form gigaseals. The cells were voltage clamped at −75 mV in whole-cell configuration using an Axopatch 200b or Multiclamp 700b (Molecular Devices) amplifier controlled by pClamp Software (Molecular Devices). The current was recorded by applying a voltage step to −120 mV every 10 seconds. […] At the end of the experiment, the cells were perfused with bath solution containing 2 mM Ba^2+ to isolate the contribution of hROMK current.
Data analysis: Raw current values (5 traces each for control, different compound concentration and Ba^2+ treatment groups) were exported from Clampfit into Microsoft Excel where the current remaining after application of Ba^2+ was subtracted from raw current to obtain hROMK specific current.

T1 sequence (P48048 whole entry): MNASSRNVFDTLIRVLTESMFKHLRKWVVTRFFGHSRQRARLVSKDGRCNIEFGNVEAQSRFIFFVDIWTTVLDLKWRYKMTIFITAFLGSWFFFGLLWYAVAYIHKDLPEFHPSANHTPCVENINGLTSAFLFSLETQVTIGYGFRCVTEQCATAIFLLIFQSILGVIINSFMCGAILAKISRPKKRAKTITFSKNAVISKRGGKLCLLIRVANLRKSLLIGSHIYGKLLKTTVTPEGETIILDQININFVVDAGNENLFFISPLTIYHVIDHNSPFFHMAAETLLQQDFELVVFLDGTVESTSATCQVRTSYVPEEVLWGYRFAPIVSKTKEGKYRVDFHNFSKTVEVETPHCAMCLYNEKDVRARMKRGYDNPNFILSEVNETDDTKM

| SMILES | pIC50 (hROMK (human Kir1.1) [1]) | inhibition at 1 µM (hERG channels) | pIC50 (hROMK (human Kir1.1) [2]) |
| --- | --- | --- | --- |
| Cc1nccc(-n2cc(CN3C[C@@H](c4ccc5c(c4C)COC5=O)N[C@@H](C)C3)n(C)c2=O)n1 [Example 173-I, 3-methyl-4-(((3S,5R)-3-methyl-5-(4-methyl-1-oxo-1,3-dihdyroisobenzofuran-5-yl)piperazin-1-yl)methyl)-1-(2-methylpyrimidin-4-yl)-1,3-dihydro-2H-imidazol-2-one] | 7.26 | 4% | 7.68 |
| Cc1c([C@@H]2CN(Cc3ccc(-c4ccc(S(C)(=O)=O)nc4)nc3)C[C@H](C)N2)ccc2c1COC2=O [Example 165-I, 4-methyl-5-((2R,6S)-6-methyl-4-((6′-(methylsulfonyl)-[2,3′-bipyridin]-5-yl)methyl)piperazin-2-yl)isobenzofuran-1(3H)-one] | 7.17 | 5.4% | 7.41 |
| COc1cc(-n2cc(CN3CCN[C@H](c4ccc5c(c4C)COC5=O)C3)cn2)ncc1C#N [Example 59-I, (R)-4-methoxy-6-(4-((3-(4-methyl-1-oxo-1,3-dihydroisobenzofuran-5-yl)piperazin-1-yl)methyl)-1H-pyrazol-1-yl) nicotinonitrile] | 7.70 | 15% | 8.32 |
| COc1nc(-n2cc(CN3C[C@@H](c4ccc5c(c4C)COC5=O)N[C@@H](C)C3)nc2C)ncc1C#N [Example 167-I, 4-methoxy-2-(2-methyl-4-(((3S,5R)-3-methyl-5-(4-methyl-1-oxo-1,3-dihydroisobenzofuran-5-yl)piperazin-1-yl)methyl)-1H-imidazol-1-yl)pyrimidine-5-carbonitrile] | 7.59 | 11% | 7.74 |
| Cc1cc(-n2ncc(C(C)N3CCN[C@H](c4ccc5c(c4C)COC5=O)C3)n2)ncc1C#N (single isomer, unassigned) [Example 121-I] | 7.51 | 10% | 6.13 |
| COc1nc(-n2cc(CN3C[C@@H](c4ccc5c(c4C)COC5=O)N[C@@H](C)C3)cn2)ncc1C#N [Example 99-I, 4-methoxy-2-(4-(((3S,5R)-3-methyl-5-(4-methyl-1-oxo-1,3-dihydroisobenzofur-an-5-yl)piperazin-1-yl)methyl)-1H-pyrazol-1-yl)pyrimidine-5-carbonitrile] | 7.48 | 9.6% | 7.54 |
| Cc1cc(-c2nc(CN3C[C@@H](c4ccc5c(c4C)COC5=O)N[C@@H](C)C3)co2)ncc1C#N [Example 130-I] | 7.28 | 8.4% | 7.70 |
| COc1nc(-n2cc(CN3CCN[C@H](c4ccc5c(c4C)COC5=O)C3)nn2)cc(C)c1C#N [Example 189-I, (R)-2-methoxy-4-methyl-6-(4-((3-(4-methyl-1-oxo-1,3-dihydroisobenzofuran-5-yl)piperazin-1-yl)methyl)-1H-1,2,3-triazol-1-yl)nicotinonitrile] | 7.60 | 8.9% | 7.77 |
| COc1cc(-n2cc(CN3CCN[C@H](c4ccc5c(c4C)COC5=O)C3)nn2)ncc1C#N [Example 255-I, (R)-4-methoxy-6-(4-((3-(4-methyl-1-oxo-1,3-dihydroisobenzofuran-5-yl)piperazin-1-yl)methyl)-1H-1,2,3-triazol-1-yl)nicotinonitrile] | 7.48 | 9.5% | 8.04 |
| COc1nc(-n2ncc(CN3C[C@@H](c4ccc5c(c4C)COC5=O)N[C@@H](C)C3)n2)ncc1C#N [Example 166-I, 4-methoxy-2-(4-(((3S,5R)-3-methyl-5-(4-methyl-1-oxo-1,3-dihydroisobenzofuran-5-yl)piperazin-1-yl)methyl)-2H-1,2,3-triazol-2-yl)pyrimidine-5-carbonitrile] | 7.52 | 6% | 7.89 |
| Cc1ncn(-c2ccc(CN3CCN[C@H](c4ccc5c(c4C)COC5=O)C3)cn2)n1 [Example 67-I, (R)-4-methyl-5-(4-((6-(3-methyl-1H-1,2,4-tri-azol-1-yl)pyridin-3-yl)methyl)piperazin-2-yl) isobenzofuran-1(3H)-one] | 6.96 | 7.1% | 7.54 |

Reference: patent publication US10501449B2 (priority 2018, dated 2019)
